“Also recorded” adds a separate entry of the source.
Key:
[1] = test system: PLD/PAP-1 pathway (DAG production); test: DAG production at site of particle engulfment measured with PKC/C2-GFP; format: cell-based, murine
From the text: FIG. 28 illustrates use of DAG binding domains to screen for atherosclerosis drugs in macrophages.

[2] = test system: human neutrophils; test: fMLP induced oxidative burst, cytochrome C reduction assay; format: cell-based
[3] = test system: RAW macrophages; test: Biochemical measurement of protein levels in fractions of drug treated RAW macrophages; format: cell-based, murine; conditions: FIG. 67 cytosol fractions
From the text: A now well established side effect of ethanol is to prevent heart attack. Thus the common effects of statins, propranolol, and ethanol must be closely linked to the central mechanism that is the most important pharmacological target of heart attack and thus atherosclerosis prevention. It remains possible that the preventative effect of statins results from their effect to inhibit particle engulfment and foam cell formation by macrophages leading to atherosclerotic plaques. We created a foam cell model and quantitative confocal assays for micro particle engulfment by macrophages. The engulfment of particles by macrophages and the generation of free radicals by leukocytes are the key physiological actions that lead to the generation of foam cells that are the center of atherosclerotic plaques. We have made a cellular model system of leukocytes or activated leukocytes or leukocytes treated over time to examine the effects drugs and biopolymer modification materials over time on the activation of receptors at the site of modified or ligand coated particles. The drugs used in this system to examine the kinetics of receptor function at modified particles may result in changes to the cell including changes in gene expression at the level of DNA transcription, RNA production, accumulation or post-transcription processing, mRNA production accumulation or expression all of which may also alter protein expression. We examined the use of these model systems with and without beads as a system to screen the effects of drugs that are known to prevent heart attack and stroke in model of leukocyte cells within atherosclerotic plaques. We observe that drugs that effect receptor associated signaling may also alter gene, RNA or ultimately protein expression in cells resulting in changes in protein levels. Proteins that change levels in response to a drug may be themselves drug target proteins.
The drugs used in the leukocyte model system to examine the kinetics of receptor function at modified particles may result in changes to the cell including changes in gene expression at the level of DNA transcription, RNA production, accumulation or post-transcription processing, mRNA production accumulation or expression all of which may also alter protein expression. We examined the use of these model systems with and without beads as a system to screen the effects of drugs that are known to effect receptor response at or near the cell surface or interior of the cells. We observe that drugs that effect receptor associated signaling may also alter gene, RNA or ultimately protein expression in cells resulting in changes in protein levels. Proteins that change levels in response to a drug may be themselves drug target proteins. […] The RAW leukocyte model foam cells system alone or in combination with the bead based biology system can be used to characterize the effects of receptor or cellular activation in terms of second messengers such as lipid and protein phosphorylation with respect to drug treatment or time in the cytosol of leukocytes (FIG. 67).

[4] = test system: RAW 264.7 macrophages; test: Phagocytic receptor assay: engulfment of IgG or ligand coated particles by RAW macrophages (foam cell model), confocal; format: cell-based, murine; conditions: for engulfment / accumulation of IgG or ligand coated particles: RAW macrophages, confocal
From the text: FIG. 25, panels A and B, illustrate respectfully a method for measurement of phagocytic receptors and a method for measuring transfection or delivery of nucleic acids and simultaneous measurement of particle engulfment using a single cell multi label confocal microscope experiment. A direct or surrogate measurement of receptor function or receptor pathway activity must be made in order establish the role of potential therapeutic target proteins in receptor function. IgG, complement, low density lipoprotein (LDL), oxidatively modified LDL (OX-LDL). Acetyl-LDL, apolipoproteins, lipoproteins, lipopolysaccharide (LPS), scavenger and other receptor functions can be measured by the accumulation of particles. The particles may themselves be comprised in part of fluorescent materials or can be directly stained with fluorescent or other colored materials or can be bound by proteins that directly or indirectly permit the attachment of fluorescent, chemiluminescent or other reporter molecules. The beads may be stained in live cells or cells fixed with formalin or paraformaldehyde or organic solvents such as alcohol and acids or by other means. The beads can be stained both before or after internalization with or without the permeabilization of the cells by detergents or organic solvents. The beads may be cells that can be lysed and imaged directly. The cells may be counter stained for the presence of specific proteins using antibodies or may express fluorescent protein constructs or contain fluorescent silencing RNA or DNA constructs or biopolymer modulating agents or drugs (FIG. 25).
We created a foam cell model and quantitative confocal assays for micro particle engulfment by macrophages. The engulfment of particles by macrophages and the generation of free radicals by leukocytes are the key physiological actions that lead to the generation of foam cells that are the center of atherosclerotic plaques. We made a cellular model system of foam cells or activated leukocytes and examine the effects of moderate levels of alcohol over time on the accumulation of particles and generation of free radicals at the site of particle accumulation compared to statins and propranolol. The model systems will consist of RAW macrophages that engulf hydrophobic polystyrene microparticles with or without coating by ligands or mixtures of ligands such as those found in cellular growth media, or free fluorescently labeled DI-LDL, OX-LDL, Acetyl LDL or other. Live cell confocal microscopy was used to quantify the effects of ethanol, compared to lovastatin and propranolol, on particle engulfment.
External particles were stained green with secondary anti rabbit FITC and then cells were permeablized and all particles stained red with secondary anti rabbit CY3. Thus engulfed particles appear red while external particles appear yellow. Beads within the cells carrying only the red signal (engulfed) and not also the green signal {red+green=yellow} (outside) were quantified for accumulation assays using both total fluorescence in the green channel and by counting individual beads in three fields on three independent cover slips for each concentration.
RAW 264.7 macrophages were cultured in alpha MEM with 5% fetal calf serum as described. The effects of lovastatin on IgG and LDL coated micro-particle engulfment at 0, 50 nM, 100 nM, 500 nM, 1 mM and higher was tested. The accumulation of free DI-LDL was quantified directly by its red fluorescence. External particles were stained green with secondary anti rabbit FITC and then cells were permeablized and all particles stained red with secondary anti rabbit CY3. Thus engulfed particles appear red while external particles appear yellow.

[5] = test system: PLC; conditions: PLC-delta PH domain
From the text: The metabolic activation of the receptor pathway at the binding site of modified beads such as ligand coated particles may be detected, measured and quantified using green fluorescence protein (GFP) fused with binding domains specific to different biopolymers, or modified biopolymers or metabolites in including phosphorylations at the site of modified particle or bead or binding.

[6] = test system: PI3K pathway to PIP3; test: PIP3 accumulation at site of IgG coated particles measured with AKT/PH-GFP; format: cell-based, murine
Experimental: FIG. 27 illustrates the use of PiP3 binding PH domains to screen atherosclerosis drugs in macrophages.
The PI3K pathway that converts PIP4, 5 bis-phosphate to PIP3, 4, 5, triphosphate, also called PIP3. PIP3 is measured by the Pleckstrin Homology (PH) domain of the protein kinase AKT, that has a high affinity for PIP3, fused to GFP (AKT/PH-GFP). The accumulation of phosphatidyl inositol triphosphate at the site of IgG coated particles was inhibited using wortamannin, and LY294002 dissolved into the cell experimental media.

[7] = in vivo; cited from earlier work
[8] = test system: PLD pathway; conditions: 500 micromolar; cited from earlier work
[9] = test system: sheep red blood cells phagocytosis; test: Phagocytosis of sheep red blood cells; format: cell-based; conditions: 15 to 30 minute incubation
[10] = test system: RAW cells; test: Cellular cholesterol extraction, filipin staining; format: cell-based, murine; conditions: brief incubation
From the text: Cholesterol levels were quantified by the esterase assay, oil red- and filipin-staining.

[11] = listed as Methyl-beta-cyclo-dextrin
[12] = listed as methyl beta cyclo dextrin

Compound	fMLP induced oxidative burst (super oxide radicals) [2]	engulfment / accumulation of IgG or ligand coated particles [4]	accumulation of PIP3 at the site of IgG coated particles [6]	also measured
CCCCC/C=C\C/C=C\C/C=C\C/C=C\CCCC(=O)C(F)(F)F [AACOCF3]	little effect on the oxidative burst			DAG production at the site of ligand coated bead binding [1]: Neither MAFP nor AACOCF3 prevent DAG production
[F][Al-]([F])([F])[F] [AlF4]				levels of proteins after G protein stimulatory drug (FIG. 67) [3]: alter levels of proteins in the membranes
CCCCCCCC(=O)OCC(CO)OC(=O)CCCCCCC (centres unmarked) [DiC8]				reversal of PLD pathway inhibitor effect on particle engulfment ([4]; add-back of PLD pathway product): the effect is reversed by DiC8
O=C1O/C(=C/Br)CCC1c1cccc2ccccc12 (centres unmarked) [HELSS]	inhibited the fMLP induced oxidative burst in a dose dependant manner	prevent particle accumulation	no side effect on the PI3K pathway to PIP3	PIP2 catalysis by PLC [5]: neither EtOH, HELSS or propranolol interfere with the catalytic action of PLC; DAG production at the site of ligand coated bead binding [1]: prohibit DAG production; also recorded: inhibitory effect
CC(C)(C)n1nc(-c2ccc(Cl)cc2)c2c(N)ncnc21 [PP2]		inhibited		
CCCC(=O)Nc1ccc(OCC(O)CNC(C)C)c(C(C)=O)c1 (centres unmarked) [acetbutolol]	not as effective as the PAP-1 inhibitor propranolol	do not inhibit particle engulfment		
CC(C)NCC(O)COc1ccc(CC(N)=O)cc1 (centres unmarked) [atenolol]	not as effective as the PAP-1 inhibitor propranolol	do not inhibit particle engulfment		
C=C1[C@@H](C)[C@H]2[C@H](Cc3ccccc3)NC(=O)[C@]23[C@H](OC(C)=O)/C=C/[C@@](C)(O)C(=O)[C@@H](C)C/C=C/[C@H]3[C@@H]1O [cytochalasin D]			inhibited	
CCO [ethanol]	inhibited the fMLP induced oxidative burst in a dose dependant manner	prevent particle accumulation	no side effect on the PI3K pathway to PIP3	PIP2 catalysis by PLC [5]: neither EtOH, HELSS or propranolol interfere with the catalytic action of PLC; DAG production at the site of ligand coated bead binding [1]: prohibit DAG production
COCCc1ccc(OCC(O)CNC(C)C)cc1 (centres unmarked) [metoprolol]	not as effective as the PAP-1 inhibitor propranolol	do not inhibit particle engulfment		
CC(C)(C)NCC(O)COc1cccc2c1CC(O)C(O)C2 (centres unmarked) [nadolol]	not as effective as the PAP-1 inhibitor propranolol	do not inhibit particle engulfment		
CC(C)NCC(O)COc1cccc2[nH]ccc12 (centres unmarked) [pindolol]	not as effective as the PAP-1 inhibitor propranolol	do not inhibit particle engulfment		
CC(C)NCC(O)COc1cccc2ccccc12 (centres unmarked) [propranolol]	inhibited the fMLP induced oxidative burst in a dose dependant manner; also recorded: much greater effect in preventing the generation of free radicals	prevent particle accumulation	no side effect on the PI3K pathway to PIP3	decrease in rate of heart attack [7]: about 35%; PIP2 catalysis by PLC [5]: neither EtOH, HELSS or propranolol interfere with the catalytic action of PLC; engulfment / accumulation of IgG or ligand coated particles ([4]; listed as Propranolol): had the largest effect in preventing the engulfment; DAG production at the site of ligand coated bead binding [1]: prohibit DAG production; effect in in vitro experiments [8]: little effect
methyl-beta cyclodextrin [MBCD]		no effect on particle engulfment	did not prevent	engulfment / accumulation of IgG or ligand coated particles [4, 11]: no effect on particle accumulation; engulfment / accumulation of IgG or ligand coated particles [4, 12]: little inhibitory effect; phagocytosis of sheep red blood cells [9]: no effect; extraction of cellular cholesterol [10, 11]: highly effective cholesterol scavenger; extraction of cellular cholesterol [10, 12]: effective to extract cholesterol

From patent US20080124310A1, “Bead based receptor biology” (priority 2006, published 2008)
